Data published in publication PMC9440176, “Novel benzylidene benzofuranone analogues as potential anticancer agents: design, synthesis and in vitro evaluation based on CDK2 inhibition assays” (3 Biotech, 2022).

Tests used:
[1] = ABTS.+ radical scavenging assay
Protocol: The assay was performed in a 96-well plate by serial dilution method. A 2 mM ABTS^.+ working solution was prepared in a phosphate buffer (Zheleva-Dimitrova et al [2010]).To this, 200 μL of aqueous potassium per sulfate (70 mM) solution was added and the solution was incubated for 24 h in the dark at room temperature to develop a blue-green color. To 30 μL of ABTS^.+ working solution, 50 μL of different concentrations (3.9–1000 μM) of the test sample solution and 170 μL of phosphate buffer (pH-7.4) were added in a well. The plate was then incubated in the dark at room temperature for 10 min. Then absorbance was measured at 690 nm using Elisa reader. Quercetin and ascorbic acid were used as standards. The percentage scavenging of ABTS^.+ was calculated using the formula, (Control Absorbance–Test Absorbance)*100/(Control Absorbance) and the anti-oxidant activity was expressed in terms of IC50 value.

[2] = DPPH. free radical scavenging assay
Protocol: DPPH. assay was performed using 96-well plate by serial dilution method. The dilution of methanolic stock solution of the test compounds and standard anti-oxidants was carried out to obtain concentration in the range of 3.9–1000 µM. Quercetin and ascorbic acid were used as standards. To a 100 μL of this solution, 100 μL of 200 µM DPPH^. in methanolic solution was added. The experiment was done in triplicate and the plate was then incubated for 30 min in the dark and later the absorbance was measured at 517 nm using Elisa reader. The percentage DPPH^. Scavenging was calculated using the formula, (Control Absorbance–Test Absorbance)*100/(Control Absorbance). The anti-oxidant activity of the test compounds was expressed in terms of concentration required for 50 percentage inhibition (IC50) (Collins [2005]).

MCF-7 = assay: MTT cytotoxicity assay on MCF-7; type: cell-based; details: 24 h, read-out: Inhibition of cell proliferation, IC50, MCF-7
Protocol: (§1) The monolayer cell culture was trypsinized and the cell count was adjusted to 5.0 × 10^5 cells/ml using respective media containing 10% FBS. To each well of the 96-well microtiter plate, 100 µL of the diluted cell suspension (50,000cells/well) was added. After 24 h, when a partial monolayer was formed, the supernatant was flicked off, the monolayer was then washed once again with the medium and 100 µL of different test concentrations of test drugs were added on to the partial monolayer in microtiter plates. The plates were then incubated at 37 °C for 24 h in 5% CO2 atmosphere. After incubation, the test solutions in the wells were discarded and 100 µL of MTT (5 mg/10 ml of MTT in PBS) was added to each well. The plates were then incubated for 4 h at 37 °C in 5% CO2 atmosphere. The supernatant was then removed and 100 µL of DMSO was added and the plates were gently shaken to solubilize the formed formazan. The absorbance was measured using a microtiter plate reader at a wavelength of 590 nm. The percentage growth inhibition was thus calculated using the following formula and the concentration of the test drug required to inhibit the cell growth by 50% (IC50) values is generated from the dose–response curves for each one of the cell lines (Meerloo et al. [2011]).
(§2) The test compounds were screened for their in vitro cytotoxicity by MTT assay against two cancer cell lines, namely MCF-7, HCT-116 and normal epithelial kidney cells (Vero). Doxorubicin was used as a reference standard.

HCT 116 = assay: MTT cytotoxicity assay on HCT 116; type: cell-based, Human; details: 24 h, read-out: Inhibition of cell proliferation, IC50, HCT 116
Protocol: as §1, §2

CDK2/Cyclin A = CDK2/Cyclin A (Homo sapiens, UniProt P24941); assay: CDK2/cyclin A inhibitory assay, Z'-LYTE FRET kinase assay; type: biochemical; details: concentration of 100 micro molar; 1000 ng/ml kinase, 1000 µM ATP
Text: Z’-LYTE® technology involves homogeneous assay design based on FRET and is a universal platform for both screening as well as profiling protein kinases. The assay uses a peptide substrate labeled with two different fluorophores, coumarin donor and fluorescein acceptor on each end. These two fluorophores make up a FRET pair, which allows the transfer of energy when both are present on the same molecule. The initial kinase reaction transfers the ϒ-phosphate of ATP to a tyrosine or serine/threonine residue on the substrate. In a secondary reaction, referred to as the development reaction, a site-specific protease recognizes and cleaves only non-phosphorylated peptide, while phosphorylated substrate remains uncleaved. […] Upon excitation of Coumarin at 400 nm, the FRET signal is measured as a ratio between the Coumarin donor emission at 445–460 nm and the fluorescein acceptor emission at 520–535 nm(Lebakken et al. [2007]).
Initial ten-fold and two-fold dilutions of Kinase and ATP concentrations were used to choose the optimal Kinase and ATP concentration based on the % Phosphorylation.
The assay was carried out according to the kit instructions (384 well format). Briefly, 5X kinase buffer [250 mM HEPES (pH 7.5), 50 mM MgCl2, 5 mM EGTA, 0.05% BRIJ-35] was diluted to 1X using distilled water. The phosphor peptide positive control (Z’-LYTE® Tyr 4 phospho-peptide) and the non-phosphorylated negative control (Z’-LYTE® Tyr 4 peptide) were then diluted to 1:500 with 1× kinase buffer to 2 μM. […] Working development solution was then made by diluting 12 μL of the provided stock solution with 388 μL of the provided development buffer. Aliquots (20 μL) of each peptide mixture were then added to the wells of a Corning 3914 solid white microplate in replicates of 8. The development reaction was initiated by the addition of 10 μL of working development-solution to all the wells. Further, the plates were allowed to incubate at room temperature for 60 min. Reactions were then stopped by the addition of 10 μL of stop solution (Jia et al. [2008]).
Reactions were quantitated using a Tecan Robotic Microplate Reader. Reader control, blank subtraction, ratio metric calculations and finally graph plotting were carried out using Gen5™ Data Analysis Software.
The CDK2/Cyclin A assay was carried out as per the manufacturer’s instruction using suitable controls and standard.
The inhibitory assay was carried out using the stock of 10 mM in DMSO. Samples were further serially diluted to obtain concentrations of 100 μM. The concentrations were chosen based on the IC50 values obtained in the MTT assay. A total of 23 analogues were selected for the assay based on their antiproliferative activity. Further, selected compounds were screened and tested against the target CDK2/Cyclin A, and their % phosphorylation and % inhibition were recorded.

[3] = test system: normal epithelial kidney cells (Vero); assay: MTT cytotoxicity assay on Vero; type: cell-based; details: 24 h, read-out: Inhibition of cell proliferation, IC50, Vero
Protocol: as §1, §2

| SMILES | IC50 [1] [µM] | IC50 [2] [µM] | IC50 (MCF-7) [µM] | IC50 (HCT 116) [µM] | % inhibition on CDK2/cyclin A (CDK2/Cyclin A) [%] | IC50 [3] [µM] |
| --- | --- | --- | --- | --- | --- | --- |
| O=C1O[C@H]([C@@H](O)CO)C(O)=C1O [Ascorbic acid, reference compound] | 24.1 ± 1.23 | 18.5 ± 1.38 | – | – | – | – |
| CCN1CC=C(c2c(OC)cc(OC)c3c2O/C(=C\c2ccc4ccccc4c2)C3=O)CC1 [NEA1] | 120.9 ± 1.08 | 141 ± 13.9 | 57.9 | 68.6 | 32.676 | – |
| CCN1CC=C(c2c(OC)cc(OC)c3c2O/C(=C\c2ccccc2OC)C3=O)CC1 [NEA2] | 179 ± 6 | 220 ± 2.77 | 49.1 | 56.7 | 28.008 | – |
| CCN1CC=C(c2c(OC)cc(OC)c3c2O/C(=C\c2ccccc2Br)C3=O)CC1 [NEA3] | 67.1 ± 3.2 | 85.5 ± 6.87 | 28.1 | 33 | 35.559 | – |
| CCN1CC=C(c2c(OC)cc(OC)c3c2O/C(=C\c2ccc(Br)cc2)C3=O)CC1 [NEA4] | 71.67 ± 0.34 | 94.7 ± 4.9 | 82.7 | 93.6 | 27.236 | 188 |
| CCN1CC=C(c2c(OC)cc(OC)c3c2O/C(=C\c2ccc(OC)c(OC)c2)C3=O)CC1 [NEA5] | > 1000 | 339 ± 9.65 | 135 | 175 | 26.007 | 177 |
| CCN1CC=C(c2c(OC)cc(OC)c3c2O/C(=C\c2ccc(Cl)cc2)C3=O)CC1 [NEA6] | 198.18 ± 0.08 | 223 ± 4.87 | 95.4 | 124 | 25.879 | 192 |
| COc1cc(OC)c(C2=CCN(C(C)C)CC2)c2c1C(=O)/C(=C/c1ccc3ccccc3c1)O2 [NISOA1] | 112 ± 5.45 | 128 ± 17.9 | 46.8 | 63.2 | 38.987 | 172 |
| COc1cc(OC)c(C2=CCN(C(C)C)CC2)c2c1C(=O)/C(=C/c1ccccc1Br)O2 [NISOA2] | 234 ± 8.45 | 381 ± 28.1 | 103 | 125 | 39.811 | > 200 |
| COc1cc(OC)c(C2=CCN(C(C)C)CC2)c2c1C(=O)/C(=C/c1ccccc1C)O2 [NISOA3] | 187 ± 8.03 | 284 ± 12.3 | 70.4 | 89.5 | 43.654 | > 200 |
| COc1ccc(/C=C2\Oc3c(c(OC)cc(OC)c3C3=CCN(C(C)C)CC3)C2=O)cc1 [NISOA5] | 109 ± 9.23 | 129 ± 6.78 | 39.6 | 55.4 | 39.054 | 167 |
| COc1cc(OC)c(C2=CCN(C(C)C)CC2)c2c1C(=O)/C(=C/c1ccc(Cl)cc1)O2 [NISOA6] | 146 ± 14.8 | 183 ± 11.9 | 43.9 | 41.8 | 36.546 | 179 |
| COc1cc(OC)c(C2=CCN(C)CC2)c2c1C(=O)/C(=C/c1ccccc1)O2 [NMA1] | 131 ± 1.74 | 151 ± 3.54 | 67.8 | 86.9 | 27.654 | 187 |
| COc1cc(OC)c(C2=CCN(C)CC2)c2c1C(=O)/C(=C/c1ccccc1C)O2 [NMA3] | 89.8 ± 1.48 | 103 ± 7.78 | 62.7 | 89 | 24.987 | 188 |
| COc1cc(OC)c(C2=CCN(C)CC2)c2c1C(=O)/C(=C/c1ccc(N(C)C)cc1)O2 [NMA4] | 137 ± 6.23 | 154 ± 12.7 | 63.8 | 89.5 | 29.543 | > 200 |
| COc1ccc(/C=C2\Oc3c(c(OC)cc(OC)c3C3=CCN(C)CC3)C2=O)cc1 [NMA5] | 87 ± 0.18 | 98.2 ± 1.99 | 155 | 139 | 25.098 | > 200 |
| COc1ccc(/C=C2\Oc3c(c(OC)cc(OC)c3C3=CCN(C)CC3)C2=O)cc1OC [NMA6] | 200 ± 4.43 | 258 ± 8.83 | 98.5 | 123 | 26.113 | > 200 |
| CCCN1CC=C(c2c(OC)cc(OC)c3c2O/C(=C\c2ccc4ccccc4c2)C3=O)CC1 [NPA1] | 101 ± 2.81 | 133 ± 19.1 | 75 | 94.3 | 16.089 | 166 |
| CCCN1CC=C(c2c(OC)cc(OC)c3c2O/C(=C\c2ccc(N(C)C)cc2)C3=O)CC1 [NPA2] | 99.3 ± 1.14 | 119 ± 12.9 | 46.9 | 87.3 | 13.664 | 172 |
| CCCN1CC=C(c2c(OC)cc(OC)c3c2O/C(=C\c2ccccc2Br)C3=O)CC1 [NPA3] | 123 ± 4.55 | 159 ± 13.9 | 53.9 | 67.9 | 17.045 | – |
| CCCN1CC=C(c2c(OC)cc(OC)c3c2O/C(=C\c2ccc(Cl)cc2)C3=O)CC1 [NPA4] | 134 ± 3.71 | 162.34 ± 0.06 | 42.1 | 44 | 14.753 | 102 |
| CCCN1CC=C(c2c(OC)cc(OC)c3c2O/C(=C\c2ccc(OC)c(OC)c2)C3=O)CC1 [NPA5] | 76.1 ± 1.75 | 89.7 ± 9.65 | 68.5 | 74.3 | 12.547 | 99.9 |
| O=c1c(O)c(-c2ccc(O)c(O)c2)oc2cc(O)cc(O)c12 [Quercetin, reference compound] | 39 ± 0.58 | 31.42 ± 0.09 | – | – | – | – |
